Earlier results as cited in patent US20040002663A1, “Method and system for use in detecting a cancerous and precancerous pathology” (priority 2002, published 2004).
Read-outs that look alike come from different tables or passages of the source.

Key:
[1] = test system: cardiac beta-adrenergic receptors
[2] = test system: alpha-adrenergic receptors of the arteriolar and venous vasculature; conditions: active metabolite of midodrine
[3] = test system: patients with orthostatic hypotension; conditions: for increase in one-minute standing systolic blood pressure: 10 mg at 0, 3, 6 hours
[4] = test system: patients with orthostatic hypotension
[5] = test system: patients with orthostatic hypotension of various etiologies
[6] = test system: patients with orthostatic hypotension; conditions: for increase in standing one-minute systolic pressure: at one hour
[7] = 10 mg t.i.d., printed as a pair (systolic/diastolic)

SMILES | stimulation of cardiac beta-adrenergic receptors [1] | action at alpha-adrenergic receptors [2] | increase in one-minute standing systolic blood pressure ([3]; one hour after each dose) | increase in one-minute standing systolic blood pressure ([3]; three hours after each dose) | three-minute standing pressures ([3]; 10 mg, one and 3 hours after dosing) | standing time ([3]; 10 mg, one and three hours after dosing) | higher one-minute standing systolic pressure ([4]; 10 mg t.i.d., one hour after dosing, 170 patients, vs placebo) | sitting blood pressure rise [4, 7] | supine blood pressure rise [4, 7] | dizziness/light headedness/unsteadiness scores and global evaluations ([4]; after week one) | standing, sitting, and supine systolic and diastolic blood pressure [5] | time the increase in standing systolic pressure was sustained in part ([6]; after 10 mg) | time the increase in standing systolic pressure was sustained in part ([6]; after 20 mg) | increase in standing one-minute systolic pressure ([6]; single 10 mg dose) | increase in standing one-minute systolic pressure ([6]; single 20 mg dose)
COc1ccc(OC)c(C(O)CN)c1 (stereo not drawn) [Desglymidodrine] | does not stimulate | alph1-agonist | – | – | – | – | – | – | – | – | – | – | – | – | –
COc1ccc(OC)c(C(O)CNC(=O)CN)c1.Cl (racemic) [midodrine, (±)−2-amino-N-(β-hydroxy-2,5-dimethoxyphenethyl)acetamide monohydrochloride] | – | – | about 15 mmHg | about 12 mmHg | increased also at one, but not 3, hours after dosing | increases in standing time seen intermittently one hour after dosing, but not at three hours | about 20 mmHg | 20/10 | 16/8 | small improvements | rise | two | four | about 30 mmHg | about 30 mmHg
